Like-named read-outs stand apart in the source and are kept apart here.
Key:
[1] = biological target: cellular retinoic acid binding protein (CRABP I) (Homo sapiens, UniProt P29762); test: Dissociation constant to cellular retinoic acid binding protein by fluorometric titration; details: no binding = no significant binding could be detected
Method: (§1) Apo-protein (1-3 μM) was titrated with the appropriate all-trans-retinoid dissolved in ethanol and the titration was followed by measuring the increase in the fluorescence of the retinoids upon binding. Reaction mixtures included 150 mM NaCl, 0.1 mM DTT, and 25 mM HEPES; pH's were 7.0 and 7.4, respectively. […] Data analyses were performed as described by Cogan et al. (14). Human RBP was purified from human serum by means of a transthyretin column (15). Human CRBP I and CRABP I were gifts from Dr. W. S. Blaner (Columbia University, New York, N.Y.) and Dr. J. Napoli (SUNY, Buffalo, N.Y.), respectively.

14-HRR synthesis = test: Metabolic rate of 14-HRR synthesis from 3H labelled retinol; format: cell-based; details: hundredfold excess of AR, data not shown
Text: Therefore, competitive inhibition at the level of CRBP is a realistic possibility to explain the retinol-AR antagonism. […] By inference, a separate 14-HRR binding protein/receptor, as yet to be defined, may exist.

SF-9 cells = test: Metabolites of [3H] retinol in SF-9 cells, HPLC; format: in vitro ADME, insect; details: SF-9, 4 hours, FIG. 1A
Method: (§2) After 4 hours (FIGS. 1A and 1B) or after 16 hours (FIG. 1C) retinoids were extracted from the washed cell pellet according to the procedure of McClean et al. (16). Retinoids were separated on an analytical C18 reversed-phase column and detected with an on-line scintillation counter using the methodology described in Buck et al. (4). […] The peak eluting at minute 29 is the all-trans anhydroretinol, whereas the companion peaks at minute 27 and 28 represent cis-isomers (14). All isomers yield spectra with characteristic vibronic fine structure similar to the spectrum of all-trans AR.

[2] = biological target: T1, cellular retinol binding protein (CRBP I) (Homo sapiens, UniProt P09455); test: Dissociation constant to cellular retinol binding protein by fluorometric titration; details: for Kd: fluorometric titration, 150 mM NaCl, 0.1 mM DTT, 25 mM HEPES
T1 sequence (P09455 1-135): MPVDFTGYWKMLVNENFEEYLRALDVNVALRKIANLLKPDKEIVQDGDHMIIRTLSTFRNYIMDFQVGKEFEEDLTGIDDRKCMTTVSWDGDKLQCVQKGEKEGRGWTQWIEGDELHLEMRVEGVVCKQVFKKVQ
Method: as §1

SF 21 cells = test: Metabolites of [3H] retinol in SF 21 cells, HPLC; format: in vitro ADME, insect; details: SF 21, 4 hours, FIG. 1B
Method: as §2

[3] = tested on: human lymphoblastoid cell lines; test: B lymphoblastoid cell proliferation, 3H thymidine incorporation (Hom 2, Jest, Ducaf); format: cell-based; details: several randomly selected lines, FIG. 2D
Method: (§3) Human B lymphoblastoid cells (e.g., cell line 5/2) were cultured in medium RPMI 1640 with 7% fetal calf serum. On the day of the assay, cells were washed and transferred to serum-free medium, RPMI 1640 supplemented with insulin, transferrin, linoleic acid, and bovine albumin (ITLB medium) as described (3). Test reagents at indicated concentrations were added to triplicate cultures of […] in 96 well plates (final volume of 200 μl/well) and cell proliferation tested 1 day (FIGS. 2B, 2C, 2D) or 3 days later (FIG. 2A) by ^3 H thymidine incorporation into DNA. […] Three additional human lymphoblastoid cell lines, Hom 2, Jest and Ducaf were tested under the conditions specified for FIG. 2A (FIG. 2D).

lymphocytes [4] = test: Metabolism by lymphocytes to retinol or 14-HRR; format: in vitro ADME; details: unpublished data
Murine thymocytes [5] = test: Activation of murine thymocytes with anti-CD3, 3H thymidine incorporation; format: cell-based
Method: (§4) Murine thymocytes (2×10^5 /well in triplicates) were cultured in ITLB medium in 96-well plates coated with 10 μg/ml anti-CD3^ε mAB (12) as described (3). […] Cell proliferation was tested on day 3 by ^3 H thymidine incorporation into DNA. […] The results of cell proliferation assays performed at 72 hours are shown. […] CTLL proliferation was measured by ^3 H thymidine incorporation into DNA (FIG. 4D). The standard deviation of triplicate measurements were <10%.

[6] = biological target: T2, serum retinol binding protein (RBP) (Homo sapiens, UniProt P02753); test: Dissociation constant to serum retinol binding protein by fluorometric titration
T2 construct: Human RBP was purified from human serum; from tissue; host or cells: human serum
Method: as §1

[7] = tested on: Human B lymphoblastoid cells (5/2); test: B lymphoblastoid cell proliferation, 3H thymidine incorporation; format: cell-based
Method: as §3

lymphocytes [8] = test: Cultures of lymphocytes with 14-HRR as agonist; format: cell-based; details: FIGS. 2B and 4B
CTLL cell line = CTLL cell line proliferation, 3H thymidine incorporation; format: cell-based; details: for CTLL proliferation: control experiments; for CTLL responsiveness to retinol and AR: with recombinant IL-2, broad dose ranges, data not shown
Method: as §4

resting T lymphocytes = test: Activation of resting T lymphocytes (summary statement); format: cell-based
murine B cell lymphoma = test: Inhibition of murine B cell lymphoma by AR; format: cell-based
interleukin-2 (IL-2) = test: IL-2 release by stimulated thymocytes, CTLL assay; format: cell-based, murine; details: for IL-2 production: presence or absence of retinol or 14-HRR, previous unpublished work
Method: as §4

[9] = tested on: Human lymphoblastoid 5/2 cells; test: Metabolites of [3H] retinol in lymphoblastoid 5/2 cells, HPLC; format: in vitro ADME; details: 5/2, 16 hours, FIG. 1C
Method: as §2

LNcAP = test: Tumor cell sensitivity to anhydroretinol, prostate carcinoma; format: cell-based; details: FIG. 6C
Text: (§5) FIGS. 6A-6B show titrations for the inhibition by AR of prostate carcinoma cell lines DU145, PC-3 and LNCAP.

DU145 = test: as above; format: cell-based; details: DU145, FIG. 6A
Text: as §5

B lymphocyte = B lymphocyte proliferation (summary statement); format: cell-based
IL-2 receptor = IL-2 receptor expression of activated T cells; format: cell-based; details: presence or absence of retinol or 14-HRR, previous unpublished work
Murine thymocytes [10] = details: T cell receptor-generated signals, serum-free medium, ref. (3); cited from earlier work
[11] = tested on: Il-2 dependent TH cell clones and T cell hybridoma; test: Growth of Il-2 dependent TH cell clones and T cell hybridoma; format: cell-based; details: previous unpublished observations
[12] = tested on: T cell leukemia line Jurkat; test: Jurkat T cell leukemia growth, viable cell count with trypan blue; format: cell-based, human
Text: Viable cells in each culture were counted. On days 4 and 6 nutrients were replenished.
The T cell leukemia line Jurkat was transferred from normal, FCS-containingmedium to serum-free medium ITLB. […] Cells were counted daily differentially in the presence of trypan blue, and the total number of cells generated in each culture plotted in FIG. 3A. It is evident that cells deprived of retinol decline in numbers as compared to cells with retinol.

Sequence of cellular retinoic acid binding protein (CRABP I) (P29762 whole entry): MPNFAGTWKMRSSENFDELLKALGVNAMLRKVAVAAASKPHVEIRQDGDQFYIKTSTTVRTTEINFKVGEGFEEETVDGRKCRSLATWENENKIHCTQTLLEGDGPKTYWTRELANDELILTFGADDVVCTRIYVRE

## C=CC(C)=CC=CC(C)=CC=C1C(C)=CCCC1(C)C [AR, Anhydroretinol]
[1]
  dissociation constant CRABP I (binding in words): no binding
14-HRR synthesis
  metabolic rate of 14-HRR synthesis: no change
SF-9 cells
  AR as metabolite of [3H] retinol: undetectable
[2]
  Kd: 23 nM
SF 21 cells
  AR as metabolite of [3H] retinol: predominant metabolite
[3]
  sensitivity to inhibition by AR: all proved sensitive to inhibition
Lymphocytes [4]
  metabolism by lymphocytes to retinol or to 14-HRR: not metabolized
Murine thymocytes [5]; AR given 2 days after activation, FIG. 4C
  thymidine uptake of cycling thymocytes: able to reduce the thymidine uptake of cycling thymocytes
Murine thymocytes [5]; retinol or 14-HRR as cofactor, anti-CD3, FIGS. 4A, 4B
  inhibition of thymocyte activation: pronounced
[6]; fluorometric titration, 150 mM NaCl, 0.1 mM DTT, 25 mM HEPES, read-out: dissociation constant RBP
  Kd: 20 nM
[7]; AR 5×10^-6 M vs 1.3×10^-6 M 14-HRR, FIG. 2B
  antagonism of 14-HRR: clear antagonism
[7]; AR 5×10^-6 M vs 3.7×10^-6 M retinol, FIG. 2A
  antagonism of retinol: clear antagonism
[7]; FIG. 2A
  support of B cell proliferation: nor does it support B cell proliferation
[7]; graded concentrations of fetal calf serum (FIG. 2C) or RBP/retinol complex (data not shown)
  inhibition of B cell cultures: strongly inhibitory
[7]; graded concentrations of fetal calf serum or RBP/retinol complex
  ID50 values: comparable to those seen in retinol-supplemented cultures
[7]; serum-free medium supplemented with retinol or 14-HRR
  inhibitory dose (ID50): dependent on the agonist concentration
[7]; serum-free medium with retinol or 14-HRR, FIGS. 2A, 2B
  competitive antagonism of retinol or 14-HRR: competitive antagonist
[7]; ten percent fetal bovine serum containing medium, FIG. 2C
  growth inhibition of B cell cultures: strong growth inhibition
Lymphocytes [8]
  inhibition of lymphocyte cultures with 14-HRR as agonist: reversibly inhibits
CTLL cell line
  CTLL proliferation: completely inert
  CTLL responsiveness to retinol and AR: independent of either retinoid
Resting T lymphocytes
  activation of resting T lymphocytes: block B lymphocyte proliferation as well as activation of resting T lymphocytes
Murine B cell lymphoma
  sensitivity to inhibition by AR: all proved sensitive to inhibition
interleukin-2 (IL-2); supernatants after 18 hours, FIG. 4D
  IL-2 release: did not interfere with IL-2 release
[9]
  AR as metabolite of [3H] retinol: also produced AR
LNcAP
  inhibition by AR, relative sensitivity: appears to be insensitive
DU145
  inhibition by AR, relative sensitivity: highest sensitivity
B lymphocyte
  B lymphocyte proliferation: block B lymphocyte proliferation
  aid to B cell proliferation: not to aid B cell proliferation

## CC(C=CC=C(C)C(O)CO)=CC=C1C(C)=CCCC1(C)C (stereo not drawn) [Compound 14-HRR, 14-hydroxy-4,14-retro-retinol]
[1]
  dissociation constant CRABP I (binding in words): no binding
[2]
  binding to CRBP: does not bind to CRBP with appreciable affinity
[2]; no binding = no significant binding could be detected
  dissociation constant CRBP I (binding in words): no binding
IL-2 receptor
  IL-2 receptor expression: unaffected
[6]
  Kd: 120 nM
CTLL cell line
  CTLL proliferation: completely inert
interleukin-2 (IL-2)
  IL-2 production: unaffected
Murine thymocytes [10]
  activation of resting thymocytes, cofactor dependence: dependent on retinoid cofactors
[11]
  growth dependence on retinol and 14-HRR: grow independently

## CC1=C(/C=C/C(C)=C/C=C/C(C)=C/CO)C(C)(C)CCC1 [retinol, all-trans retinol]
[1]
  dissociation constant CRABP I (binding in words): no binding
[12]; after day 6
  rescue of Jurkat cells on reintroduction of retinol: allows rescue of the cells
[12]; serum-free medium ITLB, 4×10^-6 M retinol
  dependence of Jurkat cells on retinol: retinol-dependent
[2]
  Kd: 13 nM
IL-2 receptor
  IL-2 receptor expression: unaffected
CTLL cell line
  CTLL proliferation: completely inert
  CTLL responsiveness to retinol and AR: independent of either retinoid
interleukin-2 (IL-2)
  IL-2 production: unaffected
Murine thymocytes [10]
  activation of resting thymocytes, cofactor dependence: dependent on retinoid cofactors
[11]
  growth dependence on retinol and 14-HRR: grow independently
